Source: US20250170172A1, “METHODS FOR TREATING LENTIVIRUS INFECTION” (Jericho Sciences, LLC, priority 2022, published 2025)

Key:
[1] = tested on: zinc binding domain of nucleocapsid protein peptide; experiment: MALDI-TOF competitive binding to nucleocapsid protein peptide in presence of zinc; parameters: species or system HIV; details: equimolar ~2×10^−4 Molar in saline, with and without zinc
Description: FIG. 1 illustrates in vitro competitive binding of FX101 to the zinc binding domain of nucleocapsid protein peptide in the presence of zinc ions using Matrix-assisted laser desorption ionization (MALDI)—time of flight (TOF) analyses. Mixtures were prepared in equimolar concentrations of ˜2×10^−4 Molar solutions in saline. […] Mass Spectrometer: Voyager DE STR (Applied Biosystems). Software: Voyager Instrument Control Panel (v 5.1) and Data Explorer (v4.0) Instrument Method: (a) ACTH_Reflector_Aug24_2010; Accelerating voltage 25000; Grid voltage 63.8%; Mirror voltage ratio1.12, Laser Rep Rate 20.0 Hz Band width 500: Vertical Scale 50, Bin size 0.5: Acquisition mass range 800-4000 Da; Delay 155, 165, or […], Laser Intensity 1480-1590. (b) angiotensine.bic, 75 nsec delay time Calibration: C1 or C2 standards in DHB matrix. Matrix: DHB (Laser BioLabs, France), 10 mg/ml in (a) 50% acetonitrile/50% water-0.1% TFA/50% water, no TFA, and (b) 50% ethanol/50% water, no TFA. Spotted: 0.5 μL sample.
The nucleocapsid protein (NC) of HIV is an established but elusive therapeutic target for HIV infection. Currently available antiretroviral drugs predominately target viral enzymes involved in replication, including reverse transcriptase, integrase and protease. Recently, a new drug class targeting the structural capsid protein has been approved. […]

SIVmac251 = experiment: Plasma viremia by TAQMAN RT-PCR in SIVmac251-infected Rhesus macaques; type: in vivo, Rhesus macaque (Macaca Mulatta); details: monotherapy 3.0 mg/kg 3 times weekly, subcutaneous
Description: Twenty-four specific pathogen-free (SPF), all male, Rhesus macaque (Macaca Mulatta) nonhuman primates (NHPs) of Indian origin were utilized for this study. The animals were tested to be free from simian type D retrovirus (SRV), simian immunodeficiency virus (SIV), simian T-cell lymphotropic/leukemia virus (STLV) and Cercopithecine herpesvirus 1 (CHV-1) at study initiation. All animals were pre-screened as negative for the protective MHC class I alleles Mamu-A*01, Mamu-B*08, and Mamu-B*17 since these alleles are associated with elite control of SIV infection. All animal studies were approved by the appropriate Institutional Animal Care and Use Committee (IACUC).
Inoculation of NHPs with SIVmac251. […] Each animal was subsequently monitored.
The twenty-four (24) SIVmac251-infected Rhesus macaques were divided into four groups: (1) sham-treated controls (vehicle only); (2) FX101-treated; (3) combination antiretroviral therapy (cART)-treated and (4) FX101 plus cART-treated. […] Comparative evaluations between groups were determined to evaluate whether FX101 alone and/or in combination with cART safely reduces virus in plasma, CSF, tissue reservoirs and/or sanctuary sites. […] Comparative longitudinal clinical measures were assessed to evaluate the safety profile. […]
Determination of plasma and CSF Viral RNA Levels. The amount of RNA copies per ml was determined using a TAQMAN assay. […]

[2] = tested on: IL-21 mRNA positive cells; experiment: IL-21 mRNA positive cell frequency in lymph node and spleen by FISH; type: in vivo, Rhesus macaque (Macaca Mulatta); details: FX-only treated animals; lymph nodes and spleen
Description: (§1) The higher Tier 2 antibody productions indicated differences in germinal center capacities, so we performed (blinded) histochemical evaluation of axillary lymph node and spleen tissues collected at necropsy. Tissues were evaluated using fluorescent in situ hybridization (FISH) probes for each, IL-21 mRNA and SIV mRNA. Cells (stained with 4′,6-diamidino-2-phenylindole) were designated either positive or negative for each hybridization label. The frequency of positive cells was determined by dividing the positive signal by the total number of cells in the field of vision.
Immunohistochemistry and in situ hybridization of lymph node and spleen tissues collected at termination. Five μm formalin fixed paraffin embedded tissues sections were mounted on Superfrost Plus Microscope slides, baked overnight at 60° C. and passed through xylene, graded ethanol, and double distilled water to remove paraffin and rehydrate tissue sections. A microwave was used for heat induced epitope retrieval (HIER). […]
(§2) Quantification of fluorescent immunohistochemistry and in situ hybridization. […] Whole slide images were analyzed using HALO image analysis software v3.1 (Indica Labs, Albuquerque, NM). […] When quantifying SIV infected cells, areas with a dendritic pattern were excluded from the analysis. […] Comparison of treatment groups was assessed using a Mann-Whitney Test (2-tailed, nonparametric)

SIV mRNA positive cells = experiment: SIV mRNA positive cell frequency in lymph node and spleen by FISH; type: in vivo, Rhesus macaque (Macaca Mulatta); details: FX-only treatment group
Description: as §1, with “vision. […]” for “vision.”
as §2
The frequency of SIV positive cells per million cells was determined using fluorescent in situ hybridization (FISH) as described in Example 8. […]

[3] = Safety assessment in SIV-infected Rhesus macaques (blood counts, clinical chemistries, flow cytometry, necropsy, histochemistry); type: in vivo, Rhesus macaque (Macaca Mulatta); details: 3 mg/kg, 3 times weekly for up to 24 weeks, subcutaneous
Description: Antiviral treatments were initiated at 10 weeks post-infection after the initial inflammatory response had subsided. All drug treatments were administered subcutaneously to avoid repeated sedations of the animals. The control animals received vehicle only (10% dimethylsulfoxide in phosphate buffered saline, DMSO/PBS). The dual-treated group received equal dosing amounts and frequencies of FX101 (3.0 mg/kg, 3× weekly) and cART (daily); the cART treatment group received two nucleo(t/s)ide RT inhibitors (NRTIs), emtricitabine (FTC, 50 mg/kg) and tenofovir disoproxil fumarate (TDF, tenofovir prodrug, 5.1 mg/kg) plus one integrase strand transfer inhibitor (INSTI), dolutegravir (DTG, 2.5 mg/kg). […] Therapeutic cART treatments were administered for up to 24 total weeks, with animals followed for up to 27 weeks post cART cessation (˜1 year post infection). All animals were monitored daily for signs of adverse events during the study.
Safety was assessed by complete blood chemistries, clinical chemistries, flow cytometry, gross necropsies and histochemical tissue imaging. There were no apparent drug-related adverse events between treatment arms across these measures over the study timeline. However, since all the animals were SIV-infected, measures and observations outside of normal healthy expected ranges occurred. […]

dengue virus = details: cited from earlier work
[4] = tested on: Japanese encephalitis virus (JEV); details: cited from earlier work

Structure (SMILES)	binding to the nucleocapsid protein zinc domain peptide [1]	direct virus replication inhibition, plasma viremia during the treatment period (SIVmac251)	frequencies of IL-21 mRNA positive cells versus control animals [2]	frequencies of virus in spleen and lymph nodes relative to the cART group (SIV mRNA positive cells)	adverse events / tolerability [3]	inhibition of dengue virus infection (dengue virus)	inhibition of Japanese encephalitis virus (JEV) infection [4]
[NH2][Pt]([NH2])([Cl])([Cl])([Cl])[N+](=O)[O-] [FX101]	binds to the peptide, even in the presence of zinc	no apparent direct virus replication inhibiting activities	higher than for the control animals in both lymph nodes and spleen	very low frequencies of virus in both spleen and lymph nodes	safe and well tolerated	–	–
c1ccc(CN(CCN(Cc2ccccn2)Cc2ccccn2)Cc2ccccn2)nc1 [TPEN, N,N,N′,N′-tetrakis(2-pyridinylmethyl)-1,2-ethanediamine]	–	–	–	–	–	inhibits dengue virus	inhibits dengue virus and Japanese encephalitis virus (JEV) infection
